Results taken from patent publication US6815414B2, “Pharmaceutical compositions for the treatment of helicobacter pylori-associated disorders” (Vecta Ltd., priority 1998, dated 2004).
Entries after “also recorded” stand apart in the source; their conditions may differ. No end group written: not given here.

What was measured:
[1] = system: H. pylori; experiment: H. pylori growth kinetics in liquid media (optical density); format: cell-based, Helicobacter pylori; details: peptide added to liquid media at increasing concentrations, microaerophilic, up to 48 h
[2] = system: H. pylori; experiment: Cold inhibition assay: competition on 125I-labeled gastrin uptake by H. pylori; format: binding, Helicobacter pylori; details: 500 nmol/l 125I-labeled gastrin, increasing concentrations of unlabeled peptide, 45 min, 37° C.
Protocol: Bacteria were incubated in the presence of 500 nmo/l ^125I-labeled gastrin and increasing concentrations of either unlabeled gastrin (G), CCK-8 (CCK), pentagastrin (Pen), somatostatin (Som) or EGF for 45 min. Bacteria were washed and radioactivity remaining in bacterial pellets was determined. One experiment representative of three.
For the cold inhibition assay, bacterial pellets were resuspended in 200 μl Brucella broth containing 500 nmol/l ^125I-labeled gastrin. Unlabeled gastrin in increasing concentrations (1250-5000 nmol/l) was added concurrently. Bacteria were incubated for 45 minutes at 37° C., after which they were extensively washed with PBS. Incorporation of ^125I-labeled gastrin was determined using a gamma counter. As controls, bacteria were incubated with ^125I-labeled gastrin (500 nmol/l) in the presence of CCK-8, pentagastrin, somatostatin or EGF at the indicated concentrations.

[3] = system: H. pylori; experiment: Radioactive gastrin uptake by H. pylori; format: cell-based, Helicobacter pylori
Protocol: (§1) H. pylori (H.P.), E. coli (E.C.), S. pneumonia (S.P.) and C. jejuni (C.J.) bacteria were incubated for 45 minutes with ^125I-labeled gastrin. Incubation was at 4° C. or 37° C. Following initial incubation, proteinase K (P.K) was added for 30 minutes, after which bacteria were washed and blotted. One experiment representative of two.
(§2) To assess labeled gastrin uptake, bacterial pellets were resuspended in 200 μl Brucella broth containing 500 nmol/l ^125I-labeled gastrin (IncStar Pharmatrade). Incubation was at either 4° C. or 37° C. for 45 minutes. Bacteria were washed three times in PBS, resuspended and incubated for 30 minutes in Brucella broth containing proteinase K (Promega) at a concentration of 25 ng/ml. Subsequently, bacteria were washed, resuspended in 100 μl PBS, out of which 10 μl were blotted on nitrocellulose filters and autoradiography performed for 7 days. Incorporated ^125I was quantitated using a gamma counter.

[4] = system: control bacteria (E. coli, S. pneumonia, C. jejuni); experiment: Radioactive gastrin uptake by control bacteria; format: cell-based; details: 500 nmol/l, 45 min, 4° C. or 37° C.; autoradiography
Protocol: as §1, §2

| Compound | effect on H. pylori growth (growth curve, OD) [1] | inhibition of labeled gastrin uptake by H. pylori [2] | uptake (incorporation) of labeled gastrin by H. pylori ([3]; 500 nmol/l, 45 min, 37° C. (not at 4° C.), autoradiography) | radioactive counts incorporated by H. pylori before proteinase K incubation ([3]; before proteinase K incubation) [CPM] | radioactive counts incorporated by H. pylori following incubation with proteinase K ([3]; following 30 min incubation with proteinase K) [CPM] | labeling of control bacteria by labeled gastrin [4] |
| --- | --- | --- | --- | --- | --- | --- |
| C[C@H](N)C(=O)NCC(=O)N[C@H]1CSSC[C@@H](C(=O)O)NC(=O)[C@H](CO)NC(=O)[C@H]([C@@H](C)O)NC(=O)[C@H](Cc2ccccc2)NC(=O)[C@H]([C@@H](C)O)NC(=O)[C@H](CCCCN)NC(=O)[C@H](Cc2c[nH]c3ccccc23)NC(=O)[C@H](Cc2ccccc2)NC(=O)[C@H](Cc2ccccc2)NC(=O)[C@H](CC(N)=O)NC(=O)[C@H](CCCCN)NC1=O [somatostatin, somatostatin 14] | none of the peptides had an effect | no inhibition | – | – | – | – |
| ^125I-labeled gastrin: 125I-labeled gastrin (IncStar Pharmatrade) used as radioligand for uptake | – | – | only H. pylori incubated at 37 °C incorporated | 311 | 385 | no labeling |
| cholecystokinin (CCK)-8 (fragment 26-33) (DYMGWMDF-NH2; ends and bridges not checked; UniProt P06307 96-103, looked up) [CCK-8, gastrin/CCKB receptor agonist peptide comprising Trp-Met-Asp-PheNH2] | did not stimulate bacterial growth; also recorded: none of the peptides had an effect | competed with gastrin on the binding to H. pylori; also recorded: inhibited labeled gastrin uptake in a dose-dependent manner | – | – | – | – |
| epidermal growth factor (EGF) (NSDSECPLSHDGYCLHDGVCMYIEALDKYACNCVVGYIGERCQYRDLKWWELR; Epidermal growth factor; UniProt P01133 971-1023, looked up) [growth factor peptide found within the gastric lumen, control peptide] | none of the peptides had an effect | no inhibition | – | – | – | – |
